Measurements from patent publication EP4793271A1, “NEUROPROTECTIVE AGENT” (National Center of Neurology and Psychiatry, priority 2023, dated 2025).

Legend:
[1] = tested on: primary cultured cells of mouse fetus-derived dorsal root ganglia (DRGs); assay: Suppression of axonal degeneration after axotomy in DRG explant culture; type: cell-based; conditions: minimum concentration at which axonal degeneration was suppressed (DI 0.3 or less), 24 hours after axotomy; for minimal effective concentration: Mus musculus, read-out: Evaluation on protection against degeneration
Method: The compound of the present invention was studied for its protective effect against axonal injury using primary cultured cells of mouse fetus-derived dorsal root ganglia (DRGs).
DRGs were collected from a fetus derived from an ICR mouse (13.5 days of pregnancy). DRGs were cultured using a plate coated by incubation with 0.1 mg/mL poly-L-lysine at 4°C for 24 hours or longer, washing with PBS, and then incubation with 2.5 µg/mL Cultrex Mouse Laminin I at 37°C for 4 to 6 hours.
One of DRGs collected was plated to each well of the coated 24-well plate. The DRG was cultured in a nicotinamide-free medium for neuron (supplemented with 10% FBS, 1 mM glutamine, 50 ng/mL NGF2.5S, and penicillin-streptomycin) for 24 hours at maximum from the start of culture and then cultured in a nicotinamide-free medium for neuron (supplemented with 2% MACS NeuroBrew-21, 50 ng/mL NGF2.5S, 1% Glutamax, 20 µM uridine, 20 µM 5-fluoro-2'-deoxyuridine, and penicillin-streptomycin) for 7 to 8 days.
The nicotinamide-free medium for neuron was prepared so as to have the same constituents as those of the composition published in a previously reported paper (Brewer et al., J. Neuroscience Research 35: 567-576) except for nicotinamide with reference to this composition.
The test compound is dissolved in DMSO and added to cells such that the final concentration of DMSO is 0.1% (1000-fold dilution). 10 mM, 1 mM, 100 µM, 10 µM, 1 µM, and 100 nM samples of the test compound are prepared and added at a 1000-fold dilution to cells.
Axotomy was carried out by scooping out a cell body portion of the cultured DRG with a chip for a micropipette. The test compound was added at the following concentrations (final concentration: 10 µM, 1 µM, 100 nM, 10 nM, 1 nM, and 100 pM) within 30 minutes after axotomy. The compound was evaluated for its protective effect against axonal degeneration by imaging (Leica DMIL microscope, 20× objective lens) the state of neurites 24 hours after axotomy and evaluating the degree of degeneration. The degree of degeneration was quantified using a program uniquely developed using the R language. A degeneration index (DI) was used as an indicator for the degree of degeneration, and the ratio of the area of a fragmented axon to the total area of axons was calculated as defined in the equation of Expression 2. Suppressed axonal degeneration was evaluated when the value of DI was 0.3 or less. The minimum concentration at which axonal degeneration was suppressed was determined for each compound. Degeneratioin index (DI) = (Degenerated axons)/(All axons) [formula]
The axonal protective activity was evaluated as A ≤ 0.01 µM, 0.01 µM < B ≤ 0.1 µM, and 0.1 µM < C ≤ 1 µM depending on the minimum concentration at which axonal degeneration was suppressed.

[2] = molecular target: T1, hSARM1 (Homo sapiens, UniProt Q6SZW1); assay: Human SARM1 activity measurement in HEK293 cells transiently transfected with ΔN-hSARM1 (PC6 fluorescent probe); type: cell-based; set-up: expressed in transfected cells; host or cells: HEK293, pcDNA3 expression vector; conditions: inhibition rate; compound 30 µM; PC6 50 µM; HEK293 cells expressing ΔN-hSARM1; approximately 48 hours from transfection; read-out: Evaluation on hSARM1 inhibitory
T1 sequence (Q6SZW1 28-724): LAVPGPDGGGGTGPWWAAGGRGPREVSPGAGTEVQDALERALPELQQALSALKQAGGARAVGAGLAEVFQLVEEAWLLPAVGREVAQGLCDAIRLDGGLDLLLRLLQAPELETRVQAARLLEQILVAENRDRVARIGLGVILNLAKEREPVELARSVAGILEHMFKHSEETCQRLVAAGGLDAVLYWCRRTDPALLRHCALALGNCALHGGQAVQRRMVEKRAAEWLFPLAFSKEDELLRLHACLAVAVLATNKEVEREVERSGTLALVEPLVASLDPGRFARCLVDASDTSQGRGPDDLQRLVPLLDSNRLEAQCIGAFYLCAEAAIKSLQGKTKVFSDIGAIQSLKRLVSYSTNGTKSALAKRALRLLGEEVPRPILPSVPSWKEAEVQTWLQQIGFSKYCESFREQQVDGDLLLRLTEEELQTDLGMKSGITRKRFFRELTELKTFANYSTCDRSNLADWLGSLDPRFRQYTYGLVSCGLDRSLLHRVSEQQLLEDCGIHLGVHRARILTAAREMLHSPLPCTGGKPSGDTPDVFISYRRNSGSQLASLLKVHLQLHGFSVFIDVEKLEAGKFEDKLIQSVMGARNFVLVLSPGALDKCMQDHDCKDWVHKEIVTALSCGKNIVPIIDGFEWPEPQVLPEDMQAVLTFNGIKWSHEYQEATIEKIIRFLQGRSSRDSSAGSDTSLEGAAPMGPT
Method: HEK293 cells cultured in a prepared medium of nicotinamide-free DMEM (Dulbecco's modified Eagle medium) supplemented with 10% FBS (BioSera), a 1% penicillin-streptomycin solution (FUJIFILM Wako Pure Chemical Corp.), 5 μM nicotinamide were inoculated at approximately 50,000 cells/well to a 96-well microplate, and the cells were cultured at 37°C under 5% CO2, transiently transfected on the next day with a pcDNA3 expression vector containing a DNA sequence (SEQ ID NO: 1) deficient in a mitochondrial targeting sequence encoded by an N-terminal 78-base sequence in cDNA encoding human sterile α- and armadillo-motif-containing protein (hSARM1) using PEI MAX(R) reagent (PolySciences Inc.), and forced to express ΔN-hSARM1 (SEQ ID NO: 2). Approximately 8 hours later, PC6, which reacts as a substrate of SARM1-specific base exchange reaction and functions as a fluorescent probe, was added thereto at a final concentration of 50 μM, and intracellular hSARM1 activity was measured (Li et al, eLife 2021 10: e67381). A compound for inhibitory activity evaluation was added at a final concentration of 30 μM at the same time with PC6, while dimethyl sulfoxide (Nacalai Tesque Inc.) was added to samples of a control group at the same time with PC6. The cells were incubated at 37°C under 5% CO2 for approximately 48 hours from transfection, followed by fluorescent signal measurement using SpectraMax M2 (Molecular Devices) (excitation: 405 nm, fluorescence: 525 nm, fluorescence cutoff: 515 nm). Results of this screening are reported as an inhibition rate (%) relative to a negative control defined as follows by using fluorescence intensity measured from a control group without transfection with ΔN-hSARM1 as a background whereas using fluorescence intensity measured from a control group transfected with ΔN-hSARM1 as the negative control. Inhibitory rate (%) = 100-(([…]-Background))/((Signalofthenegativecontrol-Background)) × 100 [formula] The nicotinamide-free medium was prepared so as to have the same composition as that of DMEM having known composition which is generally used in the art except for nicotinamide. […]

SMILES | inhibition at 30 µM [2] | Evaluation on protection against degeneration [1] | minimal effective concentration [1]
O=C(Cc1cccnc1)NCc1ccc(NC(=O)c2ccccc2)nc1 [Compound 141] | – | C (0.1 µM < C ≤ 1 µM) | –
O=C(NCc1ccc(NC(=O)C23CC4CC(CC(C4)C2)C3)nc1)c1cccnc1 [Compound 142] | > 75% | – | 0.01 to 0.1 µM
O=C(COc1ccccc1)Nc1ccc(CNC(=O)c2cccnc2)cn1 [Compound 147] | > 75% | – | ≤ 0.01 µM
O=C(Cc1ccccc1C(F)(F)F)Nc1ccc(CNC(=O)c2cccnc2)cn1 [Compound 155] | > 75% | – | ≤ 0.01 µM
O=C(Cc1cccc(C(F)(F)F)c1)Nc1ccc(CNC(=O)c2cccnc2)cn1 [Compound 156] | > 75% | – | ≤ 0.01 µM
O=C(CCc1ccc(OC(F)(F)F)cc1)Nc1ccc(CNC(=O)c2cccnc2)cn1 [Compound 170] | > 75% | – | ≤ 0.01 µM
O=C(/C=C/c1cccnc1)NCCCNC1CCN(C(=O)c2ccccc2)CC1 [compound 12] | > 75% | – | 0.01 to 0.1 µM
O=C(/C=C/c1cccnc1)Nc1cccc(OC(=O)/C=C/c2cccnc2)c1 [compound 33] | > 75% | – | 0.01 to 0.1 µM
O=C(/C=C/c1cccnc1)Nc1ccc(NC(=O)/C=C/c2cccnc2)cc1 [compound 58] | > 75% | – | ≤ 0.01 µM
O=C(/C=C/c1cccnc1)NCc1ccc(NC(=O)/C=C/c2cccnc2)cc1 [compound 62] | > 75% | – | ≤ 0.01 µM
O=C(/C=C/c1ccccc1)NCc1ccc(CNC(=O)c2cccnc2)cc1 [compound 66] | > 75% | – | ≤ 0.01 µM
O=C(/C=C/c1cccnc1)NCc1ccc(NC(=O)c2ccccc2)nc1 [compound 77] | > 75% | – | ≤ 0.01 µM
O=C(Cc1ccc(C(F)(F)F)cc1)Nc1ccc(CNC(=O)c2cccnc2)cn1 [compound 89] | > 75% | – | ≤ 0.01 µM
CC(C)(C)OC(=O)N1CC(C(=O)Nc2ccc(CNC(=O)c3cccnc3)cn2)C1 [compound 94] | > 75% | – | ≤ 0.01 µM
O=C(Nc1ccc(CCc2ccc(NC(=O)c3cccnc3)cc2)cc1)c1cccnc1 [compound 101] | > 75% | – | ≤ 0.01 µM

Further lines, with some results ahead:

inhibition at 30 µM [2] | SMILES | Evaluation on protection against degeneration [1] | minimal effective concentration [1]
> 75% | O=C(Cc1ccc(Cl)cc1)Nc1ccc(CNC(=O)c2cccnc2)cn1 [Compound 145] | – | ≤ 0.01 µM
> 10% | CCC(=O)Nc1ccc(CNC(=O)c2cccnc2)cn1 [Compound 157] | A (A ≤ 0.01 µM) | –
> 75% | NCc1ccc(C(=O)N2CCC(CCCCNC(=O)/C=C/c3cccnc3)CC2)cc1 [compound 1] | A (A ≤ 0.01 µM) | –
> 75% | O=C(/C=C/c1cccnc1)NCCCCCCN1CCN(CCO)CC1 [compound 3] | – | ≤ 0.01 µM
> 75% | NCCOCCOCCOCCCCCCCCNC(=O)c1cccnc1 [compound 9] | – | ≤ 0.01 µM
> 75% | O=C(/C=C/c1cccnc1)NCCOCCOc1ccc(CNC(=O)c2ccccc2)cc1 [compound 14] | – | ≤ 0.01 µM
> 75% | O=C(/C=C/c1cccnc1)NCCCOc1cccc(O)c1 [compound 23] | – | ≤ 0.01 µM
> 75% | COCOc1cccc(OCCCNC(=O)/C=C/c2cccnc2)c1 [compound 24] | – | ≤ 0.01 µM
> 75% | O=C(/C=C/c1cccnc1)NCCOCCOc1cccc(O)c1 [compound 26] | – | ≤ 0.01 µM
> 75% | COCOc1cccc(OCCOCCNC(=O)/C=C/c2cccnc2)c1 [compound 29] | – | ≤ 0.01 µM
> 75% | O=C(/C=C/c1cccnc1)NCCCCCCNC(=O)/C=C/c1cccnc1 [compound 38] | – | ≤ 0.01 µM
> 75% | C/C(=C\C(=O)NCCCCCCNC(=O)/C=C(\C)c1cccnc1)c1cccnc1 [compound 42] | – | ≤ 0.01 µM
> 50% | O=C(NCCCOc1ccc(CNC(=O)c2cccnc2)cc1)c1cccnc1 [compound 52] | – | ≤ 0.01 µM
> 75% | O=C(/C=C/c1cccnc1)NCCCOc1ccc(CNC(=O)c2cccnc2)cc1 [compound 53] | – | ≤ 0.01 µM
> 75% | O=C(NCCOCCOc1ccc(CNC(=O)c2cccnc2)cc1)c1cccnc1 [compound 54] | – | ≤ 0.01 µM
> 75% | O=C(/C=C/c1cccnc1)NCCOCCOc1ccc(CNC(=O)c2cccnc2)cc1 [compound 55] | – | ≤ 0.01 µM
> 50% | C/C(=C\C(=O)NCCOCCOc1ccc(CNC(=O)c2cccnc2)cc1)c1cccnc1 [compound 56] | – | ≤ 0.01 µM
> 75% | C#CCCOc1ccc(C(=O)NCCCCCCNC(=O)c2cccnc2)cc1 [compound 68] | – | ≤ 0.01 µM
> 75% | O=C(/C=C/c1cccnc1)NCCCOCCOCCCNC(=O)/C=C/c1cccnc1 [compound 69] | – | ≤ 0.01 µM
> 50% | O=C(NCc1ccc(NC(=O)C2COC2)cc1)c1cccnc1 [compound 93] | – | 0.01 to 0.1 µM
